# Measurements from patent US20230390315A1, “COMPOSITIONS AND METHODS FOR TREATING ISCHEMIC CONDITIONS” (The Regents of the University of California, priority 2020, published 2023).
# What was measured:
# [1] = tested on: bovine pituitary cells; experiment: Bovine pituitary cell proliferation assay; type: cell-based; details: alone or in combination with growth factors
# Experimental: Proliferation assays with fibroblasts were done in low-glucose DMEM containing 1% FBS, with or without 10 ng/ml bFGF, or 100 ng/ml human EGF and the assay was ended at day 3. ARPE-19 cells were gently lifted with 0.025% trypsin and plated in RtEGM media (Clonetics) containing 2% FBS, L-glutamine, human bFGF and GA-1000. Once cells were attached to plates, serum-free RtEGM media was used to maintain the cultures. For proliferation assays, 1500 human RPE cells were plated into 96-well plates in low-glucose DMEM containing 1% FBS. A673, U87MG, Calu6 and AML12 cells were grown until confluent and were then harvested and re-suspended in appropriate assay media. For proliferation assays, cells were plated at the density of 1000-2000 cells/well in low-glucose DMEM containing 5% FBS or otherwise stated. Bovine pituitary cells (pituitary folliculostellate cells) were isolated as previously described. For proliferation assays with human epidermal keratinocytes, human DMVECs and human dermal fibroblast cells, 1000 cells/well were plated in low-glucose DMEM containing 1% FBS with or without various growth factors. The assay was ended at day 3 for bovine pituitary cells and at day 4 for all the other cell types. […] Four days later, tumor cell growth was measured by the MTS assay (Promega, Madison, WI), a colorimetric assay that measures metabolic activity of viable cells. […]
# [2] = Cellular uptake of ManN in BCECs; type: in vitro ADME, bovine
# [3] = in vivo
# [4] = tested on: β-Glucosidase; experiment: β-glucosidase activity assay; type: biochemical, almond; details: up to 2 mM
# Experimental: a-mannosidase activity was measured using substrate p-nitrophenyl α-mannopyranoside (1 mM). Enzyme from Jack Bean ([…]) (final concentration of 0.077 U) was incubated at 37° C. in a final volume of 50 μl of 50 mM potassium phosphate buffer, pH 7.5. α-glucosidase was assayed with substrate p-nitrophenyl α-glucoside (7 mM). Enzyme from Saccharomyces cerevisiae-type 1 (Sigma, G5003) (final concentration of 0.1 U) was incubated at 37° C. in a final volume of 50 μl of PBS, pH 7.5. β-Glucosidase was assayed with substrate 4-nitrophenyl β-D-glucopyranoside (Roche). Enzyme from almond (Sigma, G0395) (final concentration of 0.002 U) was incubated at 37° C. in a final volume of 50 μl of PBS, pH 7.5 containing 1% SDS. The incubation was stopped by addition of an equal volume of acid-based stop solution (R&D systems, 895032). Enzymatic activity was measured at 405 nm. α-glucosidase from Saccharomyces cerevisiae type I ([…]) with p-nitrophenyl α-D-glucopyranoside (Sigma, N1377) as the substrate.
# [5] = ManN stability in wound fluid from S. aureus infected mice; type: in vitro ADME, mouse; details: up to 24 hours at 37° C.
# Experimental: To test ManN stability in wound fluid collected from mice with skin infection as described below, 1.5 μl of 5% ManN solution was added to each 200 μl wound fluid which was first diluted 1:1 (v/v) with PBS. At each time point, samples were taken from 37° C. incubator and stored at −80° C. Plasma proteins were precipitated by adding ice cold acetonitrile to plasma: acetonitrile 1:3 (v/v) ratio. Samples were kept over ice for 1 hr and then centrifuged at 12000 g for 10 min at 7° C. to form a pellet. Supernatants were transferred to other tubed, dried down on a Speed Vac and then reconstituted in UltraPure distilled water and filtered through pre-washed Nanosep 3K Omega filters (Pall Corporation). The filtrate was dried down on Speed Vac. The dry samples were dissolved in 100 μl of water and 2 μL plasma or wound fluid sample was subjected to HPLC analysis. Neutral and amino sugars were separated on a Dionex CarboPac™ PA1 column 4 mm×250 mm with 4 mm×50 mm guard column. An isocratic gradient of 19 mM sodium hydroxide with 0.95 mM sodium acetate was used at a flow rate of 1 ml/min with 20 min run. Data was collected using the Dionex ICS-3000 HPLC system with pulsed amperometric detector using standard Quad waveform. ManN was identified and quantified by comparison with monosaccharide standard using Thermo Scientific Chromeleon software. No ManN samples served as negative controls. […]
smiles,measurement,setting,value
"N[C@H](C=O)[C@@H](O)[C@H](O)[C@H](O)CO [ManN, 2-Amino-2-deoxy-D-mannose]",proliferation of bovine pituitary cells,[1],no increases in proliferation
same,cell entry and accumulation,[2],entered and accumulated inside the cells in a concentration-dependent manner
same,ManN detected in 1 mg cell lysate,[2]; 400 uM ManN for 2 hours,0.66 nmol
same,plasma free ManN peak level,"[3]; male, C57BL/6, mouse, po",~100 nmol/ml plasma
same,time of plasma peak level,"[3]; male, C57BL/6, mouse, po",1 h
same,free ManN in ischemic leg muscle,"[3]; male, C57BL/6, mouse, po, 2 h",0.17+/−0.18 nmol/mg protein
same,plasma free ManN detectable relative to peak,[3]; mouse,about half of that amount
same,effect on β-glucosidase,[4],No effect
same,loss of free ManN on incubation with wound fluid,[5],No significant loss of free ManN
